# Measurements as given in patent US7348421B1, “Methods for production of p-hydroxybenzoate in bacteria” (North Carolina State University, priority 2000, dated 2008).
# Where “and” joins values, the source holds several entries; their conditions need not be identical. Equal values may be shown once. Read-outs that look alike come from different tables or passages of the source.
# Key:
# [1] = system: Pseudomonas putida DOT-T1E; assay: Halo-inhibition test with antibiotic disks on minimal medium; assay type: cell-based; conditions: wild-type; Halo-inhibition test
# [2] = system: P. mendocina krc16DkpobA51a (#303); assay type: cell-based, Pseudomonas mendocina; conditions: gradient 0-100 mg/L, repeated lines
# [3] = system: P. mendocina KR1-A (#362); assay type: cell-based, Pseudomonas mendocina; conditions: gradient 0-100 mg/L, repeated lines
# toluene-tolerant strain = assay: Enrichment selection in flasks, toluene; assay type: cell-based; conditions: slow rate of growth
# Experimental: Using a similar procedure with toluene, a toluene-tolerant strain (with a slow rate of growth on 150 ppm of toluene) was obtained. Adding 10 mM MgSO4 increased the tolerance of the organism to toluene.
# DOT-T1E = assay type: cell-based, Pseudomonas putida; conditions: wild-type, 0.3% (vol/vol) toluene
# Pseudomonas aeruginosa = assay type: cell-based; conditions: gradient of PHBA between 0 and 30 g/L
# [4] = system: P. putida KT2440 with pPAT7; conditions: gradient 0-20 g/L
# P. mendocina KR1 = conditions: P. mendocina KR1, plasmid none, gradient 0-20 g/L
# [5] = system: Acinetobacter calcoaceticus; assay type: cell-based; conditions: gradient of PHBA between 0 and 30 g/L
# Pseudomonas putida R1 = assay type: cell-based; conditions: gradient of PHBA between 0 and 30 g/L
# [6] = system: P. mendocina KR1 with pPAT7; conditions: gradient 0-20 g/L
# [7] = system: P. mendocina krc16DkpobA51a (#303); conditions: gradient 0 to 40 g/L, 24 h, 30° C.
# [8] = system: P. mendocina KR1 with pPAT8; conditions: gradient 0-20 g/L
# Pseudomonas stutzeri = assay type: cell-based; conditions: gradient of PHBA between 0 and 30 g/L
# E. coli K12 (#327) = conditions: gradient 0 to 40 g/L, 24 h, 30° C.
# Pseudomonas putida EEZ10 = assay type: cell-based; conditions: gradient of PHBA between 0 and 30 g/L
# [9] = system: Pseudomonas putida DOT-T1E; assay: pHBA shock after preculture on pHBA, 1 or 10 mM MgSO4; assay type: cell-based
# Ralstonia solanacearum = assay type: cell-based; conditions: gradient of PHBA between 0 and 30 g/L
# P. putida KT2440 = conditions: P. putida KT2440, plasmid none; gradient 0-20 g/L
# strain F (DGL#325) = assay: Selection on TSA plates with toluene and pHBA; assay type: cell-based, Pseudomonas mendocina; conditions: 100 ppm toluene, after few day of incubation
# Experimental: Three more transfers were made in a TSA medium plus 10 g/L glucose, 100 mg/L cycloheximide, 5 g/L agar (Difco), and increasing concentrations of pHBA. The pH was adjusted to 7.2. Toluene to 100 ppm was added to the bottom of the glass desicator as a mixture of hexadecane:toluene (262 mL:26.5 mL). This mixture was expected to give 100 ppm toluene in the liquid phase in equilibrium. […]. Under microscope strain C grew in long chains.
# Pseudomonas vesicularis = assay type: cell-based; conditions: gradient of PHBA between 0 and 30 g/L
# PhoA5 mutant = assay: Survival after sudden pHBA shock with or without Fe-citrate; assay type: cell-based, Pseudomonas putida
# [10] = system: P. putida KT2440 with pPAT8; conditions: gradient 0-20 g/L
# strain C = assay: Selection on TSA plates with toluene and pHBA; assay type: cell-based; conditions: 100 ppm toluene
# Experimental: Three more transfers were made in a TSA medium plus 10 g/L glucose, 100 mg/L cycloheximide, 5 g/L agar (Difco), and increasing concentrations of pHBA. The pH was adjusted to 7.2. Toluene to 100 ppm was added to the bottom of the glass desicator as a mixture of hexadecane:toluene (262 mL:26.5 mL). This mixture was expected to give 100 ppm toluene in the liquid phase in equilibrium. Selected strains C and F (DGL#325) grew on 40 g/L pHBA after few day of incubation, strain C grew at 50 g/l pHBA after 10 days of incubation. Under microscope strain C grew in long chains.
# Enriched cultures = assay: Selection on TSA plates with toluene and pHBA; assay type: cell-based; conditions: dodecane:toluene overlay (100 ppm toluene)
# Experimental: Five transfers were made on glass plates with trypticase soy agar (TSA-Difco) medium with 10 g/L glucose. Toluene (˜0.5 mL) was added to the bottom of the inverted plates, saturating the medium and the gas phase. […]. This mixture was calculated to give 100 ppm toluene concentration in the liquid phase. […]
# Pseudomonas fluorescens = assay type: cell-based; conditions: gradient of PHBA between 0 and 30 g/L
# Bacillus subtilis = assay type: cell-based; conditions: gradient of PHBA between 0 and 30 g/L
# P. mendocina KR1 (#363) = assay: Growth on pHBA gradient plates; conditions: gradient 0 to 40 g/L, 24 h, 30° C.
# Escherichia coli ET8000 = assay type: cell-based; conditions: gradient of PHBA between 0 and 30 g/L
# Alcaligenes eutrophus = assay type: cell-based; conditions: gradient of PHBA between 0 and 30 g/L
# [11] = system: P. putida PhoA5 with pPAT8; conditions: gradient 0-20 g/L
# [12] = system: Pseudomonas putida DOT-T1E; assay: Growth in M9 liquid medium with glucose and p-hydroxybenzoate; assay type: cell-based; conditions: M9 with glucose
compound,measurement,setting,value
"O=C(N[C@H](CO)[C@H](O)c1ccc([N+](=O)[O-])cc1)C(Cl)Cl [CAM, chloramphenicol]",tolerance/sensitivity to antibiotic,[1],tolerant
same,Growth (distance in mm) on CAM gradient,[2],10 mm and 15 mm
same,Growth (distance in mm) on CAM gradient,[3],15 mm and 10 mm
Cc1ccccc1 [toluene],toluene concentration at which the strain grew,toluene-tolerant strain,150 ppm
same,survival of toluene shock,DOT-T1E; cells pre-exposed to toluene in the gas phase,tolerated the shock
same,loss of viability after sudden exposure to toluene,DOT-T1E; non-pre-exposed cells,5 orders of magnitude
"O=C(O)c1ccc(O)cc1 [pHBA, p-hydroxybenzoic acid]",pHBA tolerance or sensitivity,Pseudomonas aeruginosa,sensitive
same,pHBA Tolerance,[4],17 g/L
same,pHBA Tolerance,P. mendocina KR1,8.5 g/L
same,pHBA Tolerance,P. mendocina KR1; listed as PHBA,about 8.5 g/L
same,pHBA tolerance or sensitivity,[5],tolerant
same,pHBA tolerance or sensitivity,Pseudomonas putida R1,tolerant
same,pHBA Tolerance,[6],~10 g/L
same,growth on pHBA gradient plates,[7],10 mm and 15 mm
same,pHBA Tolerance,[8],10.2 g/L
same,pHBA Tolerance,[8]; listed as PHBA,~10 g/L
same,pHBA tolerance or sensitivity,Pseudomonas stutzeri,sensitive
same,growth on pHBA gradient plates,E. coli K12 (#327),35 mm and 20 mm
same,pHBA tolerance or sensitivity,Pseudomonas putida EEZ10,tolerant
same,cell viability after pHBA shock,"[9]; cells not pregrown on pHBA, 30 and 36 g/L, 24 h after the shock",no cells were recovered
same,cell viability after pHBA shock,"[9]; cells not pregrown on pHBA, >18 g/L, 1 or 10 mM MgSO4",marked decrease in cell viability
same,cell viability after pHBA shock,"[9]; preinduced cells, 30 and 36 g/L pHBA, 1 mM MgSO4, 24 h after the shock",cells were not recoverable
same,decrease in number of viable cells after pHBA shock,"[9]; preinduced cells, 30 g/L, 10 mM MgSO4, growth resumed afterwards",~6 orders of magnitude
same,cell viability after pHBA shock,"[9]; preinduced cells, up to 0.18 g/L PHBA, regardless of MgSO4",no significant effect on cell viability
same,pHBA tolerance or sensitivity,Ralstonia solanacearum,sensitive
same,pHBA Tolerance,P. putida KT2440,17 g/L
same,pHBA concentration at which strain grew,strain F (DGL#325),40 g/L
same,pHBA tolerance or sensitivity,Pseudomonas vesicularis,sensitive
same,survival after pHBA shock,"PhoA5 mutant; 12 g/L PHBA, absence of iron",about 0.0001%
same,survival after pHBA shock,"PhoA5 mutant; 12 g/L PHBA, with extra iron (Fe-citrate)",~100%
same,survival after pHBA shock,"PhoA5 mutant; 18 g/L, absence of iron",no cells survived
same,survival after pHBA shock,"PhoA5 mutant; 18 g/L, supplemented with iron",0.001%
same,pHBA Tolerance,[10],18.5 g/L
same,pHBA concentration at which strain grew,strain C; after 10 days of incubation,50 g/l
same,pHBA concentration at which strain grew,strain C; after few day of incubation,40 g/L
same,pHBA concentration at which cultures grew,Enriched cultures,20 g/L
same,pHBA tolerance or sensitivity,Pseudomonas fluorescens,sensitive
same,pHBA tolerance or sensitivity,Bacillus subtilis,sensitive
same,growth on pHBA gradient plates,P. mendocina KR1 (#363),10 mm and 20 mm
same,pHBA tolerance or sensitivity,Escherichia coli ET8000,tolerant
same,pHBA tolerance or sensitivity,Alcaligenes eutrophus,sensitive
same,pHBA Tolerance,[11],17 g/L
same,growth (CFU per mL),[12]; 6 g/L of p-hydroxybenzoate,growth was exponential
same,growth (CFU per mL),[12]; 12 or higher g/L p-hydroxybenzoate,number of viable cells decreased
